According to patent US20160257697A1, “THIOPHENE-SUBSTITUTED TETRACYCLIC COMPOUNDS AND METHODS OFUSE THEREOF FOR THE TREATMENT OF VIRAL DISEASES” (priority 2013, published 2016):
pIC50: −log10 of the molar value. Where two headings read alike, the source gives them in different places.

Key:
Test in all cases: microbe, parasite or virus in culture
Assay type in all cases: cell-based, Hepatitis C virus (HCV)
[1] = test system: HCV replicon 2B; conditions: Replicon Assay A; for IC50: read-out: 2B IC50 (nM), replicon 2B
In short: (§1)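 Read-out is replicon RNA per cell by real-time RT-PCR, normalised to cyclophilin mRNA amplified in the same well. Cells were exposed to compound for 3 days at 2000 cells/well in medium with 5% fetal bovine serum and 0.5% DMSO.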

[2] = test system: HCV replicon 1AY93H; conditions: Replicon Assay A; for IC50: read-out: 1A Y93H IC50 (nM), replicon 1AY93H
In short: as §1

[3] = test system: HCV replicon 1A; conditions: Replicon Assay A
In short: as §1

[4] = read-out: 2B IC50, HCV replicon 2B
[5] = Hepatitis C virus, read-out: 1A Y93H IC50, HCV replicon 1A Y93H
[6] = read-out: 1A Y93H IC50, HCV replicon 1A Y93H
[7] = Hepatitis C virus, HCV replicon 1A
[8] = read-out: 1A Y93H IC50, replicon 1AY93H

Structure (SMILES)	pIC50 [1, 4]	pIC50 ([1]; read-out: 2B IC50, replicon 2B)	pIC50 [2, 8]	pIC50 ([3]; replicon 1A)	further results
COC(=O)NC(C(=O)N1[C@@H]2C[C@@H]2C[C@H]1c1ncc(-c2ccc3c(c2)cc2n3C(c3cc4ccccc4s3)Oc3cc(-c4cnc([C@@H]5CCCN5C(=O)[C@@H](NC(=O)OC)C(C)C)[nH]4)cc(F)c3-2)[nH]1)C1C[C@@H](C)O[C@@H](C)C1 (single isomer, unassigned) [Compound 648]	8.77	–	–	–	pIC50 [2, 5]: 8.69; pIC50 ([3]; HCV replicon 1A): 11.44
COC(=O)N[C@H](C(=O)N1CCC[C@H]1c1ncc(-c2ccc3c(c2)OC(c2cc4ccccc4s2)n2c-3cc3cc(-c4cnc([C@@H]5C[C@@H](F)CN5C(=O)[C@@H](NC(=O)OC)C5CCOCC5)[nH]4)ccc32)[nH]1)C1CCOCC1 (single isomer, unassigned) [Compound 812]	9.82	–	–	–	pIC50 [2, 6]: 9.36; pIC50 [3, 7]: 10.47
CCc1ccc(C2Oc3cc(-c4cnc([C@@H]5CCCN5C(=O)[C@@H](NC(=O)OC)C(C)C)[nH]4)cc(F)c3-c3cc4cc(-c5cnc([C@@H]6CCCN6C(=O)C(NC(=O)OC)C6C[C@@H](C)O[C@@H](C)C6)[nH]5)ccc4n32)s1 (single isomer, unassigned) [Compound 142]	–	9.32	9.60	11.70	–
COC(=O)NC(C(=O)N1CCC[C@H]1c1ncc(-c2cc(F)c3c(c2)OC(c2ccc(C(C)C)s2)n2c-3cc3cc(-c4cnc([C@@H]5CCCN5C(=O)[C@@H](NC(=O)OC)C(C)C)[nH]4)ccc32)[nH]1)C1CCOC(C)(C)C1 (single isomer, unassigned) [Compound 246]	–	–	–	–	IC50 ([1]; Hepatitis C virus): 0.27 nM; IC50 ([2]; Hepatitis C virus): 0.58 nM; pIC50 ([3]; Hepatitis C virus, replicon 1A): 11.96
COC(=O)N[C@H](C(=O)N1CCC[C@H]1c1ncc(-c2cc(F)c3c(c2)OC(c2csc4ccccc24)n2c-3cc3cc(-c4cnc([C@@H]5CCCN5C(=O)[C@@H](NC(=O)OC)C(C)C)[nH]4)ccc32)[nH]1)C(C)C (single isomer, unassigned) [Compound 323]	–	–	–	–	IC50 ([1]; Hepatitis C virus): 15.8 nM; IC50 ([2]; Hepatitis C virus): 2.51 nM; pIC50 ([3]; Hepatitis C virus, replicon 1A): 11.68
CCc1ccc(C2Oc3cc(-c4cnc([C@@H]5CCCN5C(=O)[C@@H](NC(=O)OC)C(C)C)[nH]4)cc(F)c3-c3cc4cc(-c5cnc([C@@H]6CCCN6C(=O)C(NC(=O)OC)C6CCOC(C)(C)C6)[nH]5)ccc4n32)s1 (single isomer, unassigned) [Compound 153]	–	9.29	9.37	11.68	–
COC(=O)N[C@H](C(=O)N1CCC[C@H]1c1ncc(-c2cc(C)c3c(c2)OC(c2cc4c(s2)CCC4)n2c-3cc3cc(-c4cnc([C@@H]5CCCN5C(=O)[C@@H](NC(=O)OC)C5C[C@@H](C)O[C@@H](C)C5)[nH]4)ccc32)[nH]1)C(C)C (single isomer, unassigned) [Compound 550]	10.36	–	–	–	pIC50 [2, 6]: 9.81; pIC50 ([3]; HCV replicon 1A): 10.52
COC(=O)NC(C(=O)N1CCC[C@H]1c1ncc(-c2ccc3c(c2)cc2n3C(c3ccc(CC(F)(F)F)s3)Oc3cc(-c4cnc([C@@H]5CCCN5C(=O)[C@@H](NC(=O)OC)C(C)C)[nH]4)cc(F)c3-2)[nH]1)C1C[C@@H](C)O[C@@H](C)C1 (stereo partly drawn) [Compound 381]	–	–	–	–	IC50 ([1]; Hepatitis C virus): 0.181 nM; IC50 ([2]; Hepatitis C virus): 0.141 nM; pIC50 ([3]; Hepatitis C virus, replicon 1A): 11.85
[2H]C(C)(C)C(NC(=O)OC)C(=O)N1CCC[C@H]1c1ncc(-c2cc(F)c3c(c2)OC(c2ccc(C4CC4)s2)n2c-3cc3cc(-c4cnc([C@@H]5CCCN5C(=O)[C@@H](NC(=O)OC)C(C)C)[nH]4)ccc32)[nH]1 (single isomer, unassigned) [Compound 32]	–	8.22	8.85	11.89	–
CCc1ccc(C2Oc3cc(-c4cnc([C@@H]5CCCN5C(=O)[C@@H](NC(=O)OC)C(C)C)[nH]4)cc(C)c3-c3cc4cc(-c5cnc([C@@H]6CCCN6C(=O)C(NC(=O)OC)C6C[C@@H](C)O[C@H](C)C6)[nH]5)ccc4n32)s1 (single isomer, unassigned) [Compound 546]	10.27	–	–	–	pIC50 [2, 6]: 9.57; pIC50 ([3]; HCV replicon 1A): 10.86
COC(=O)N[C@H](C(=O)N1CCC[C@H]1c1ncc(-c2cc(F)c3c(c2)OC(c2cc(C)c(C)s2)n2c-3cc3cc(-c4cnc([C@@H]5C[C@@H](F)CN5C(=O)[C@@H](NC(=O)OC)C(C)C)[nH]4)ccc32)[nH]1)C(C)C (single isomer, unassigned) [Compound 516]	8.28	–	–	–	pIC50 [2, 6]: 10.94; pIC50 ([3]; HCV replicon 1A): 11.72
COC(=O)N[C@H](C(=O)N1CCC[C@H]1c1ncc(-c2ccc3c(c2)OC(c2ccc(C4CC4)s2)n2c-3cc3cc(-c4cnc([C@@H]5CCCN5C(=O)[C@@H](NC(=O)OC)C5CCOCC5)[nH]4)ccc32)[nH]1)C(C)C (single isomer, unassigned) [Compound 334]	–	10.11	9.80	–	pIC50 ([3]; Hepatitis C virus, replicon 1A): 11.62
COC(=O)N[C@H](C(=O)N1C[C@H](F)C[C@H]1c1ncc(-c2ccc3c(c2)OC(c2ccc(C)s2)n2c-3cc3cc(-c4cnc([C@@H]5C[C@H]6C[C@H]6N5C(=O)[C@@H](NC(=O)OC)C(C)C)[nH]4)ccc32)[nH]1)C(C)C (single isomer, unassigned) [Compound 706]	8.34	–	–	–	pIC50 [2, 6]: 8.61; pIC50 ([3]; HCV replicon 1A): 10.64
CCc1ccc(C2Oc3cc(-c4cnc([C@@H]5CCCN5C(=O)[C@@H](NC(=O)OC)C(C)C)[nH]4)cc(F)c3-c3cc4cc(-c5cnc([C@@H]6CCCN6C(=O)C(NC(=O)OC)C6CCOC(C)(C)C6)[nH]5)ccc4n32)s1 (single isomer, unassigned) [Compound 152]	–	9.28	9.32	11.80	–
COC(=O)N[C@@H](Cc1ccccc1)C(=O)N1CCC[C@H]1c1ncc(-c2ccc3c(c2)OC(c2ccc(-c4ccc(NC(=O)CCCC[C@@H]5SC[C@@H]6NC(=O)N[C@@H]65)cc4)s2)n2c-3cc3cc(-c4cnc([C@@H]5CCCN5C(=O)[C@H](Cc5ccccc5)NC(=O)OC)[nH]4)ccc32)[nH]1 (single isomer, unassigned) [Compound 383]	–	8.06	8.20	10.44	–
COC(=O)NC(C(=O)N1CCC[C@H]1c1ncc(-c2ccc3c(c2)cc2n3C(c3ccc(C4CC4)s3)Oc3cc(-c4cnc([C@@H]5C[C@@H](F)CN5C(=O)[C@@H](NC(=O)OC)C(C)C)[nH]4)cc(F)c3-2)[nH]1)C(C)(C)F (single isomer, unassigned) [Compound 112]	–	8.15	9.64	11.66	–
COC(=O)N[C@H](C(=O)N1CCC[C@H]1c1ncc(-c2cc(C)c3c(c2)OC(c2cc4c(s2)CCC4)n2c-3cc3cc(-c4cnc([C@@H]5CCCN5C(=O)[C@@H](NC(=O)OC)C5C[C@@H](C)O[C@@H](C)C5)[nH]4)ccc32)[nH]1)C(C)C (single isomer, unassigned) [Compound 549]	9.77	–	–	–	pIC50 [2, 6]: 9.25; pIC50 ([3]; HCV replicon 1A): 11.15
COC(=O)N[C@H](C(=O)N1CCC[C@H]1c1ncc(-c2cc(C)c3c(c2)OC(c2cc(C)c(C)s2)n2c-3cc3cc(-c4cnc([C@@H]5CCCN5C(=O)[C@@H](NC(=O)OC)C(C)C)[nH]4)ccc32)[nH]1)C(C)C (single isomer, unassigned) [Compound 15]	–	8.64	7.74	–	pIC50 ([3]; Hepatitis C virus, replicon 1A): 11.54
COC(=O)NC(C(=O)N1CCC[C@H]1c1ncc(-c2ccc3c(c2)cc2n3C(c3cc4nccnc4s3)Oc3cc(-c4cnc([C@@H]5CCCN5C(=O)[C@@H](NC(=O)OC)C(C)C)[nH]4)cc(F)c3-2)[nH]1)C1C[C@@H](C)O[C@@H](C)C1 (single isomer, unassigned) [Compound 371]	–	10.20	9.26	–	pIC50 ([3]; Hepatitis C virus, replicon 1A): 11.38
COC(=O)N[C@H](C(=O)N1CCC[C@H]1c1ncc(-c2cc(F)c3c(c2)OC(c2ccc(C(C)C(F)(F)F)s2)n2c-3cc3cc(-c4cnc([C@@H]5CCCN5C(=O)[C@@H](NC(=O)OC)C(C)C)[nH]4)ccc32)[nH]1)C(C)C (single isomer, unassigned) [Compound 132]	–	8.22	–	–	IC50 ([2]; Hepatitis C virus): 4.93 nM; pIC50 ([3]; Hepatitis C virus, replicon 1A): 11.49
COC(=O)N[C@H](C(=O)N1CCC[C@H]1c1nc(-c2ccc3c(c2)OC(c2cc4sccc4s2)n2c-3cc3cc(-c4c[nH]c([C@@H]5C[C@H]6C[C@H]6N5C(=O)[C@@H](NC(=O)OC)C5CCOCC5)n4)ccc32)c[nH]1)C(C)C (mixture of isomers) [Compound 726]	–	–	–	–	pIC50 ([1]; Hepatitis C virus, read-out: 2B IC50, HCV replicon 2B): 9.80; pIC50 [2, 5]: 10.33; pIC50 [3, 7]: 11.20
COC(=O)N[C@@H](Cc1ccccc1)C(=O)N1CCC[C@H]1c1ncc(-c2ccc3c(c2)OC(c2ccc(-c4ccc(NC(=O)CCCC[C@@H]5SC[C@@H]6NC(=O)N[C@@H]65)cc4)s2)n2c-3cc3cc(-c4cnc([C@@H]5CCCN5C(=O)[C@H](Cc5ccccc5)NC(=O)OC)[nH]4)ccc32)[nH]1 (single isomer, unassigned) [Compound 385]	–	8.14	8.51	9.96	–
CCc1ccc(C2Oc3cc(-c4cnc([C@@H]5CCCN5C(=O)C(NC(=O)OC)C5CCOC(C)(C)C5)[nH]4)cc(F)c3-c3cc4cc(-c5cnc([C@@H]6CCCN6C(=O)[C@@H](NC(=O)OC)C(C)C)[nH]5)ccc4n32)s1 (single isomer, unassigned) [Compound 165]	–	9.62	9.57	11.70	–
COC(=O)N[C@H](C(=O)N1CCC[C@H]1c1cnc(-c2ccc3c(c2)cc2n3C(c3cc4ccccc4s3)Oc3cc(-c4cnc([C@@H]5CCCN5C(=O)[C@@H](NC(=O)OC)C5CCOCC5)[nH]4)ccc3-2)[nH]1)C1CCOCC1 (single isomer, unassigned) [Compound 810]	11.30	–	–	–	pIC50 [2, 6]: 10.74; pIC50 ([3]; HCV replicon 1A): 11.40
